This is an account of results in patent publication US20020115678A1, “Compounds, compositions and methods for treating antibiotic-resistant infections” (priority 1996, published 2002).

The subject of experiment [1] is Staphylococcus aureus methicillin-resistant wild type T67738. Kind of experiment: Susceptibility test (MIC, microtiter serial dilution), methicillin-resistant S. aureus. The conditions noted are these: MIC by serial dilution in Mueller-Hinton broth. The format is cell-based. Here is the method:
(§1) The strains were streaked on blood agar plates (trypticase soy broth containing 5% sheep cells). A single colony was isolated and grown in Mueller-Hinton Broth (MHB) as recommended by the national Committee for Clinical Laboratory Standards for rapidly growing bacteria. Candida species and related fungi were isolated in a similar manner on brain-heart infusion agar (BHI).
(§2) The antibiotic susceptibility profile of each strain was determined using standard microtiter dilution plates obtained from the Clinical Microbiology Laboratory at Ohio State University Hospitals. The Inocula were prepared by suspending a 4 hour log phase growth in MHB visually equal in turbidity of an 0.5 McFarland standard. Inocula were further diluted and added to microdilution trays to achieve a final density of approximately 1×10^5 CFU/ml. The trays were incubated for 16 to 20 hours at 35° C. The highest dilution at which wells remained clear was considered to be the minimum inhibitory concentration (MIC).
(§3) The MIC and minimum bacterial concentration (MBC) of the strains to the active agents were determined by two-fold dilutions in Mueller-Hinton broth. Susceptibility tests for ATCC-obtained microorganisms and clincal isolates of gram positive bacteria including methicillin-susceptible and resistant Staphylococci, Streptococci, Pneumococci and gram negative bacteria, including Enterobacteriaceae, Pseudomonas, Hemophilus and Neisseria, were performed in microtiter plates as described above. The MIC and MBC were determined after 48 hours incubation at 35-37° C. A sample of 0.01 ml was taken from each clear well at the MIC end-point and streaked on trypticase soy agar plates. After 24 hours incubation, the number of colonies was counted. The amount of the agent required to kill 99.9% of the bacteria was determined as the MBC. Susceptibility tests for ATCC isolates of Candida and other fungi were performed in BHI broth according to the NCCLS method. Two ml of MHB containing serial dilutions of the agents compounds were added to 13×100 mm tubes. An inoculum of 0.1 ml (prepared as described above) was then added to each tube. The final inoculum was approximately […]. The tubes were incubated at 35° C. in ambient air and read at 24 hours. The highest dilution at which the tubes remained clear was considered to be the MIC.
(§4) The MBC was determined as follows: After 48 hours incubation, tubes without visible growth were vortexed. A sample of 0.01 ml was taken from each tube and streaked on trypticase soy agar plates. After 24 hours, incubation, the number of colonies was counted. The amount of agent required to kill 99.9% of bacterial inoculum in the inoculum was determined as the MBC. Susceptibility tests for Mycobacteria were performed according to standard methods at the national Institutes of Health.
(§5) Compounds of the invention were dissolved in 1 ml of methanol and stored in aliquots at −70° C. They were diluted in Mueller-Hinton broth for final screening. Compositions were tested in 0.1 ml volumes by serial dilution in microtiter plates against Staphylococcus aureus methicillin-sensitive ATCC 29213 and the methicillin-resistant wild type T67738, as described above. The T67738 was resistant to most antimicrobial drugs, including ciprofloxacin.

The subject of experiment [2] is Staphylococcus aureus methicillin-sensitive ATCC 29213. Kind of experiment: Susceptibility test (MIC, microtiter serial dilution), methicillin-sensitive S. aureus. The class given is cell-based. The conditions noted are these: methicillin-sensitive S. aureus ATCC 29213; MIC by serial dilution in Mueller-Hinton broth. How it is done: as §1, §2, §3, §4, §5
For a further experiment, the system named is Mycobacteria. The experiment can be described thus: Susceptibility tests for Mycobacteria (standard methods, National Institutes of Health). The class given is cell-based. Here is the method: as §4
The next experiment deals with bacterial pathogens. The following applies: background statement; cited from earlier work.

SMILES strings stand for the structures.

Take `OC(c1cc(-c2ccc(Cl)cc2)nc2ccccc12)C1CCCCN1` (centres unmarked) [#7929]: in experiment [1], the “Effective Concentration S. aureous Resist.” value was 6.25 µg/mL. The “Effective Concentration S. aureous Sens.” value in experiment [2] was 6.25 µg/mL.

`OC(c1cc(-c2ccccc2)nc2c(Cl)cc(Cl)cc12)C1CCCCN1` (centres unmarked) [#7930]: the “Effective Concentration Mycobacteria” value in the experiment with Mycobacteria is 2 µg/mL. For the same compound, the “Effective Concentration S. aureous Resist.” value in experiment [1] turned out to be 1.6 µg/mL. In addition, the “Effective Concentration S. aureous Sens.” value in experiment [2] is “<.08 µg/mL”.

Regarding `OC(c1cc(-c2ccc(Cl)cc2)nc2c(Cl)cc(Cl)cc12)C1CCCCN1` (centres unmarked) [#7936], the “Effective Concentration S. aureous Resist.” value in experiment [1] is below 0.8 µg/mL. Besides, in experiment [2], the “Effective Concentration S. aureous Sens.” value is below 0.8 µg/mL.

Take `CCC1CN2CCC1CC2C(O)c1ccnc2ccc(OC)cc12` (centres unmarked) [#112312]: the “Effective Concentration Mycobacteria” value in the experiment on Mycobacteria turned out to be 128 µg/mL. The “Effective Concentration S. aureous Resist.” value in experiment [1] came out at 1.56 µg/mL. Further, in experiment [2], the “Effective Concentration S. aureous Sens.” value came to 1.56 µg/mL.

Turning to `CCCC(CCC)NCC(O)c1cc(-c2ccc(Cl)cc2)nc(-c2ccc(Cl)cc2)c1` (centres unmarked) [#153136], the “Effective Concentration S. aureous Resist.” value in experiment [1] amounted to 3.0 µg/mL.

Take `OC(c1cc(-c2ccc(C(F)(F)F)cc2)nc(-c2ccc(C(F)(F)F)cc2)c1)C1CCCCN1` (centres unmarked) [#153141]: in the experiment on Mycobacteria, the “Effective Concentration Mycobacteria” value stood at 0.5 µg/mL.

Turning to `COc1cc(C(F)(F)F)c2nc(C(F)(F)F)cc(C(O)C3CCCCN3)c2c1` (centres unmarked) [#159314], the “Effective Concentration S. aureous Resist.” value in experiment [1] was determined as 3.1 µg/mL. Moreover, in experiment [2], the “Effective Concentration S. aureous Sens.” value turned out to be 6.25 µg/mL.

With `O=C(c1cc(-c2ccccc2)nc2c(Cl)cc(Cl)cc12)C1CCCCN1` (centres unmarked) [#169446], the “Effective Concentration Mycobacteria” value in the experiment on Mycobacteria was 2 µg/mL. Besides, in experiment [1], the “Effective Concentration S. aureous Resist.” value stood at 1.6 µg/mL. In addition, the “Effective Concentration S. aureous Sens.” value in experiment [2] amounted to 1.6 µg/mL.

Regarding `COc1ccc2nc(-c3ccc(Cl)c(Cl)c3)cc(C(O)C3CCCCN3)c2c1` (centres unmarked) [#259398], the “Effective Concentration S. aureous Resist.” value in experiment [1] is 1.56 µg/mL. In experiment [2], the “Effective Concentration S. aureous Sens.” value amounted to 1.56 µg/mL.

Turning to `OC(c1cc(C(F)(F)F)nc2c(C(F)(F)F)cccc12)C1CCCCN1` (centres unmarked) [Mefloquine], in the experiment with bacterial pathogens, the “activity against bacterial pathogens in vitro” value is given as “some activity”.
